Activity calls are given as the source filed them.
system: not listed separately; assay: inhibitors of SNCA 5'UTR-driven reporter translation, confirmation, H4 neuroglioma cells, luminescence (AID 1988); format: functional, cell-based; settings: not given

SMILES | EC50
COc1ccc(Nc2cc3n(c(=O)n2)CCc2cc(OC)c(OC)cc2-3)c(C)c1 | 35.6 µM (active)
CCOc1ccccc1Nc1cc2n(c(=O)n1)CCc1cc(OC)c(OC)cc1-2 | 9.81 µM (active)

system: not listed separately; assay: Luminescence Cell-Based Dose Response HTS to Identify Inhibitors of 5'UTR Stem-Loop Driven Prion Protein mRNA Translation in H4 Neuroglioblastoma Cells. [Related pubchem assays: 1827 (Project Summary), 1813 (Primary HTS)]; format: functional; settings: not given

SMILES | EC50
COc1ccc(Nc2cc3n(c(=O)n2)CCc2cc(OC)c(OC)cc2-3)c(C)c1 | 41.3 µM (active)
CCOc1ccccc1Nc1cc2n(c(=O)n1)CCc1cc(OC)c(OC)cc1-2 | 30.7 µM (active)

system: not listed separately; assay: microbe, parasite or virus in culture; format: functional; settings: Mycobacterium tuberculosis

SMILES | CC50
CCN(C[C@H]1N[C@@](Cc2ccccc2)(C(=O)OC)[C@H]2C(=O)N(Cc3ccccc3)C(=O)[C@@H]12)C(=O)Nc1ccc(C(F)(F)F)cc1 | 39.5 µM (active)
CCCC(/C=C/c1ccc(OC(C)=O)cc1)=C1/c2ccccc2C(=O)N1c1ccccc1 | 12.8 µM (active)
CCOCCN1CCN(c2c(CC)c(C)nc3cc(-c4cc(OC)cc(OC)c4)nn23)CC1 | > 40 µM (active)
Cc1ccc(-c2csc3ncnc(Nc4ccc(N5CCOCC5)cc4)c23)cc1 | > 40 µM (active)
Clc1cccc(-c2cc3nc4c(c(NCc5ccco5)n3n2)CCCC4)c1 | 23.7 µM (active)
CCn1cc([N+](=O)[O-])c(C(=O)N2N=C(c3ccc4ccccc4c3)CC2c2ccccc2O)n1 (configuration not stated) | 33.1 µM (active)
COc1cc2c(C(=O)N3CCN(c4cccc(Cl)c4)CC3)cn(CC(C)C)c(=O)c2cc1OC | > 40 µM (active)
Nc1ccn([C@@H]2O[C@H](CO)[C@@H](O)C2O)c(=O)n1 (some centres not stated) [CYTARABINE] | 1.8 µM (active)

system: Streptococcus; assay: Group A Streptococcus viability loss, dose response, counter-screen for streptokinase expression inhibitor project, luminescence, BacTiterGlo (AID 1915); format: functional, organism-based; settings: not given;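 also: potency for reduction of bacterial viability or growth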

SMILES | EC50
CC(C)(C)c1ccc(OCCCC(=O)NC2=NCCS2)cc1 | > 150 µM (not active)
CCc1cc(C(=O)N2CCCC(CCC(=O)NCc3cccc(OC)c3)C2)no1 (configuration not stated) | > 150 µM (not active)
CCCCc1ccc(NC(S)=NCCc2ccc(F)cc2)cc1 | > 150 µM (not active)

biological target: T1, High affinity choline transporter 1 (Homo sapiens, UniProt Q9GZV3); assay: CHT inhibitors, dose response, cell-based, 5-point CRC, membrane potential dye (AID 504840); format: functional; settings: not given
T1 sequence (Q9GZV3 whole entry): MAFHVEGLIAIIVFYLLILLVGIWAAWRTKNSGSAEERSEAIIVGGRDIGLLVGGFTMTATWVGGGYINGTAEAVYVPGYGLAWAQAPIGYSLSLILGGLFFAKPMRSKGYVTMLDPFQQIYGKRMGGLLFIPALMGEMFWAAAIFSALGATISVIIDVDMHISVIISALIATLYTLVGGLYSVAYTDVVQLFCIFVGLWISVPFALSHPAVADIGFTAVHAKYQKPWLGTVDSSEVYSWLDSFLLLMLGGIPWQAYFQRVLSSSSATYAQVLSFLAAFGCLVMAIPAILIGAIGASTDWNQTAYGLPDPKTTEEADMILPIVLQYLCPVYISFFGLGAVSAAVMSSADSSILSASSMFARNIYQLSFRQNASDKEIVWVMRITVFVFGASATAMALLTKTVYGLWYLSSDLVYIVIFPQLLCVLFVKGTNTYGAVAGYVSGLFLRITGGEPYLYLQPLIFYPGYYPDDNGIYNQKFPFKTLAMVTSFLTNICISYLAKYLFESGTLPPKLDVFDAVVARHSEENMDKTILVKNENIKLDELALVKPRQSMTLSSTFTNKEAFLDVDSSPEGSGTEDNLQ

SMILES | IC50
O=C(NC1CCCCCCC1)c1ccc(S(=O)(=O)N2CCCC2)cc1 | 14.5 µM (active)
OCc1ccccc1OCCOc1ccc(Cl)c2cccnc12 | 11.5 µM (active)
O=C(CC(CC(=O)c1ccc(Cl)cc1)c1ccccc1C(=O)O)c1ccc(Cl)cc1 | 13.8 µM (active)
CCn1cc(C(=O)N2CCCCC2)c(=O)c2cc(S(=O)(=O)N3CCC(C)CC3)ccc21 | 16.2 µM (active)
CCOC(=O)c1ccccc1N/C=C/C(=O)c1cccs1 | 13.2 µM (active)
CCOc1cc(/C=N/NC(=O)CN2CCCCC2)ccc1OCc1cccc(Cl)c1 | 14.5 µM (active)

biological target: Cytochrome P450 2D6 (Homo sapiens, UniProt P10635); assay: not given; settings: not given;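 also: CYP2D6 member of a cytochrome P450 panel assay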
Sequence (P10635 whole entry): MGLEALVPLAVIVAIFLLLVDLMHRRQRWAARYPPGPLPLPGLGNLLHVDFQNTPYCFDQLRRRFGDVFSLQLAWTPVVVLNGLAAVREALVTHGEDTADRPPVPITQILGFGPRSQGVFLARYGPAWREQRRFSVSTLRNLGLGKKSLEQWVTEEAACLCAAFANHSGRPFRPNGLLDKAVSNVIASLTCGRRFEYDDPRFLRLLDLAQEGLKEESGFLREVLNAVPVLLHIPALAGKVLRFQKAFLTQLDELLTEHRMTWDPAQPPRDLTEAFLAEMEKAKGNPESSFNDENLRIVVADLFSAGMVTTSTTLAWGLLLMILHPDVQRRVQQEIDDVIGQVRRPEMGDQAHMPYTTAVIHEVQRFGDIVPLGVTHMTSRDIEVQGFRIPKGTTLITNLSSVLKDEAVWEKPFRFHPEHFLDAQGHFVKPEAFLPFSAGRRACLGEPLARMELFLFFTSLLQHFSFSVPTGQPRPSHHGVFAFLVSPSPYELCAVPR

SMILES | AC50
CCc1ccccc1NC(=O)C1C(c2ccccc2)C1(Cl)Cl (configuration not stated) | 11.2 µM (inconclusive)

system: not listed separately; assay: cells; format: functional; settings: not given

SMILES | IC50
CC(C)(C)c1ccc(OCCCC(=O)NC2=NCCS2)cc1 | 20.1 µM (active)

biological target: T2, Ubiquitin-conjugating enzyme E2 N (Homo sapiens, UniProt P61088); assay: not given; format: functional; settings: not given;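 also: Dose-response confirmation in a TR-FRET assay detecting UBC13-driven polyubiquitin chain formation, inhibition measured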
T2 sequence (P61088 whole entry): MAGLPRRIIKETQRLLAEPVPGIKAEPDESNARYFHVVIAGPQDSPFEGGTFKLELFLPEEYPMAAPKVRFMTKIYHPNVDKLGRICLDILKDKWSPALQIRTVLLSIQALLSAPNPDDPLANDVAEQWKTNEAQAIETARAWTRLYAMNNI

SMILES | IC50
c1ccc2c(C[C@@H]3CNCCN3CC3CCCCC3)cccc2c1 | > 20 µM (inactive)

system: not listed separately; assay: Luminescence Cell-Based Dose Confirmation HTS to Identify Inhibitors of Platelet Dense Granule Release. [Related pubchem assays: 1663 (Primary HTS), 1678 (Summary of Project)]; format: functional; settings: not given

SMILES | EC50
COc1ccc(Nc2cc3n(c(=O)n2)CCc2cc(OC)c(OC)cc2-3)c(C)c1 | 987 nM (active)
CCOc1ccccc1Nc1cc2n(c(=O)n1)CCc1cc(OC)c(OC)cc1-2 | 1230 nM (active)

biological target: T3, Cytochrome P450 1A2 (Homo sapiens, UniProt P05177); assay: not given; settings: not given;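 also: PubChem cytochrome P450 panel assay, CYP1A2 panel member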
T3 sequence (P05177 whole entry): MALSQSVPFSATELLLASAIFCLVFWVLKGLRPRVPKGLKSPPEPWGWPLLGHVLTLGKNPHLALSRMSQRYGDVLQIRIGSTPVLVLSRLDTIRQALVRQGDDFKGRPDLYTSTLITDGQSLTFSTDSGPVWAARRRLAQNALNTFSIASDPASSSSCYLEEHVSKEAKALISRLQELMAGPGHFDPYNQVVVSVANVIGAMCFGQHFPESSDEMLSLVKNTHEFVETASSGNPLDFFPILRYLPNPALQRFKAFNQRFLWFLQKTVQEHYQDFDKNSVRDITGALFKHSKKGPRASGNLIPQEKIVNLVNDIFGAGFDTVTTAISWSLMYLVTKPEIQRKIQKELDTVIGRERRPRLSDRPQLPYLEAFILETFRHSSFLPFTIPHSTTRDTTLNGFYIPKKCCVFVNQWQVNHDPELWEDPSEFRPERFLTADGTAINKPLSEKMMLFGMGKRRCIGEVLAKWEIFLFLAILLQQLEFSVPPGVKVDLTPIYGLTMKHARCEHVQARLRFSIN

SMILES | AC50
CCc1ccccc1NC(=O)C1C(c2ccccc2)C1(Cl)Cl (configuration not stated) | 17.8 µM (inconclusive)

system: Streptococcus sp. 'group A'; assay: growth inhibition of control SK(-) GAS strain, dose response, counter-screen for streptokinase expression inhibitor project, luminescence, kanamycin, BacTiterGlo, confirmation (AID 1900); format: functional, organism-based; settings: not given

SMILES | EC50
CC(C)(C)c1ccc(OCCCC(=O)NC2=NCCS2)cc1 | 19.8 µM (active)
CCc1cc(C(=O)N2CCCC(CCC(=O)NCc3cccc(OC)c3)C2)no1 (configuration not stated) | > 150 µM (not active)

biological target: Luciferin 4-monooxygenase (Photinus pyralis, UniProt P08659); assay: firefly luciferase enzyme inhibitors, dose response, biochemical, luminescence (AID 1891); settings: not given
Sequence (P08659 whole entry): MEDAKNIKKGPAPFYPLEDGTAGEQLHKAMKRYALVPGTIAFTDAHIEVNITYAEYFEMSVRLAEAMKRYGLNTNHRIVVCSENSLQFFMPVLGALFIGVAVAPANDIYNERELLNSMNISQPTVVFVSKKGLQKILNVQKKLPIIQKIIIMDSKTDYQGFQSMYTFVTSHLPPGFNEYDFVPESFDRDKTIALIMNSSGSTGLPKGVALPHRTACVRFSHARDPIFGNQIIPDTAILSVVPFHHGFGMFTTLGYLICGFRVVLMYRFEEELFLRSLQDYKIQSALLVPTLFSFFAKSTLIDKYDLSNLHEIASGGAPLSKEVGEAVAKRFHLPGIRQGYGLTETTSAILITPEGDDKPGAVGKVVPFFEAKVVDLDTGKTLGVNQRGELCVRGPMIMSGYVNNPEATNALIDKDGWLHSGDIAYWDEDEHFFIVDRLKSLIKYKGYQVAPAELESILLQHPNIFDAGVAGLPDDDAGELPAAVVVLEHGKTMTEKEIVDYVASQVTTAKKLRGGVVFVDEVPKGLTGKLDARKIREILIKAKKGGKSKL

SMILES | EC50
COc1ccc(Nc2cc3n(c(=O)n2)CCc2cc(OC)c(OC)cc2-3)c(C)c1 | > 112 µM (not active)
CCOc1ccccc1Nc1cc2n(c(=O)n1)CCc1cc(OC)c(OC)cc1-2 | > 112 µM (not active)

biological target: Cytochrome P450 2C9 (Homo sapiens, UniProt P11712); assay: not given; settings: not given
Sequence (P11712 whole entry): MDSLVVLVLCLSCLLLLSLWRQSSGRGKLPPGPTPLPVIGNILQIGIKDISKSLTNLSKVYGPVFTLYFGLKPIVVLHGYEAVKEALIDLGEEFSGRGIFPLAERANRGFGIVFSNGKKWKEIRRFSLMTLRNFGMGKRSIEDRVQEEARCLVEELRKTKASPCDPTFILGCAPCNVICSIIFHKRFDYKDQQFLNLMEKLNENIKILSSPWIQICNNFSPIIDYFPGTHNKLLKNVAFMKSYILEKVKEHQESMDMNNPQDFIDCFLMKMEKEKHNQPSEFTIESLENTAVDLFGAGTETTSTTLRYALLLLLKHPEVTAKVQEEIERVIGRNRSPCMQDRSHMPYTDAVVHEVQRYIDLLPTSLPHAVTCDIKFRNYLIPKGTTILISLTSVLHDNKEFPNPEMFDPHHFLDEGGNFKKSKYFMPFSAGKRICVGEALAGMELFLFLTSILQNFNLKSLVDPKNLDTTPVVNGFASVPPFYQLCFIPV

SMILES | AC50
CCc1ccccc1NC(=O)C1C(c2ccccc2)C1(Cl)Cl (configuration not stated) | 20 µM (inconclusive)

system: not listed separately; assay: inhibitors of firefly luciferase expression or activity, dose response, H4 neuroglioma cells, luminescence (AID 1990); format: functional, cell-based; settings: not given

SMILES | EC50
COc1ccc(Nc2cc3n(c(=O)n2)CCc2cc(OC)c(OC)cc2-3)c(C)c1 | 17.3 µM (active)
CCOc1ccccc1Nc1cc2n(c(=O)n1)CCc1cc(OC)c(OC)cc1-2 | 47.8 µM (active)

biological target: T4, Streptokinase A (Streptococcus pyogenes serotype M1, UniProt P10520); assay: S. pyogenes streptokinase expression inhibitors, potency, dose response, plasminogen activation absorbance, OD405 (AID 1914); format: functional, Streptococcus pyogenes M1 GAS; settings: not given;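 also: secreted streptokinase activity via plasminogen activation per viability signal from cell pellet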
T4 sequence (P10520 whole entry): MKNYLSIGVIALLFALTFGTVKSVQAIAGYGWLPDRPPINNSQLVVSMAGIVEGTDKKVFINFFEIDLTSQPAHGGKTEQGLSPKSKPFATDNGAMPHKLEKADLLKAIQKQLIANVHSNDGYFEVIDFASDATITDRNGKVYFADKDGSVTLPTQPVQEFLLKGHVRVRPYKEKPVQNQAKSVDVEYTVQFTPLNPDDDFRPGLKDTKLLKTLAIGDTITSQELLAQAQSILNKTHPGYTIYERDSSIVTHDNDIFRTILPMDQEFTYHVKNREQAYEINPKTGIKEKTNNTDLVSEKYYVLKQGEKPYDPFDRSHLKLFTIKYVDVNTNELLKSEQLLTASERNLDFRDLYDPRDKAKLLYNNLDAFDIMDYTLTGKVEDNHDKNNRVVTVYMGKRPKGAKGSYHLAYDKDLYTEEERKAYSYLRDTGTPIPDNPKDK

SMILES | EC50
CC(C)(C)c1ccc(OCCCC(=O)NC2=NCCS2)cc1 | > 150 µM (not active)
CCc1cc(C(=O)N2CCCC(CCC(=O)NCc3cccc(OC)c3)C2)no1 (configuration not stated) | > 150 µM (not active)
CCCCc1ccc(NC(S)=NCCc2ccc(F)cc2)cc1 | 45 µM (active)

From ChEMBL document CHEMBL1201862, “PubChem BioAssay data set” (2004)
